From patent US7122558B2 (priority 2000, dated 2006) come the findings set out here.

Structures can show the parent of a compound that is named as a salt.

The assay deals with T1, human muscarinic receptors M3 (Homo sapiens, UniProt P20309).
T1 construct: expressed in transfected cells; host or cells: CHO-K1 (chinese hamster ovary-K1), stably transfected; membrane preparations
The assay can be described thus: biochemical. The assay is classed as binding. Particulars: for inhibition at 0.1 µM: read-out: % INHIBITION concentration: 1.00E−07 M; for inhibition at 0.01 µM: read-out: % INHIBITION concentration: 1.00E−08 M.

T1 sequence (P20309 whole entry): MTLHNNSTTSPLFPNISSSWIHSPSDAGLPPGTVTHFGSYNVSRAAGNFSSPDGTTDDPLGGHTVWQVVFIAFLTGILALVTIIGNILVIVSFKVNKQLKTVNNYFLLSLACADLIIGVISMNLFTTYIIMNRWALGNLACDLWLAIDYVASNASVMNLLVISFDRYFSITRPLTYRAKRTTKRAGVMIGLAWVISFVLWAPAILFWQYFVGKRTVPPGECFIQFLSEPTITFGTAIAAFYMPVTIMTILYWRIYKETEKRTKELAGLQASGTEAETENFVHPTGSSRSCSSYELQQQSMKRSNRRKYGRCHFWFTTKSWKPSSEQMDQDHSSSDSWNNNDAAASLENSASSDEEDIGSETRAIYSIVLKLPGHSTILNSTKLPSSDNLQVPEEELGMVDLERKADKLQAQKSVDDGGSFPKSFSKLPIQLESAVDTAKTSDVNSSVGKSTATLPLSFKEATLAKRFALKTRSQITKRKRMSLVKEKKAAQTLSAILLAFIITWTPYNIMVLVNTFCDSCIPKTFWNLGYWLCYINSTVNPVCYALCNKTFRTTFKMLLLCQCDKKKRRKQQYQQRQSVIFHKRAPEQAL

Take `O=C(O[C@H]1C[N+]2(CCCOc3ccccc3Cl)CCC1CC2)[C@](O)(c1cccs1)C1CCCC1` [Example 40, 1-[3-(2-Chlorophenoxy)-propyl]-(3R)-3-[(2S)-2-cyclopentyl-2-hydroxy-2-thien-2-ylacetoxy]-1-azoniabicyclo[2.2.2]octane trifluoroacetate]: the inhibition at 0.1 µM is 86.9% and the inhibition at 0.01 µM turned out to be 72.7%.
For `O=C(O[C@H]1C[N+]2(CCCSc3ccccc3)CCC1CC2)[C@](O)(c1cccs1)C1CCCC1` [Example 37, (3R)-3-[(2S)-2-Cyclopentyl-2-hydroxy-2-thien-2-ylacetoxy]-1-(3-phenylsulfanylpropyl)-1-azoniabicyclo[2.2.2]octane trifluoroacetate], the inhibition at 0.1 µM came to 88.1% and the inhibition at 0.01 µM was 72.6%.
Turning to `O=C(O[C@H]1C[N+]2(CCCc3ccccc3)CCC1CC2)[C@](O)(c1cccs1)C1CCCC1` [Example 26, (3R)-3-[(2S)-2-Cyclopentyl-2-hydroxy-2-thien-2-ylacetoxy]-1-(3-phenylpropyl)-1-azoniabicyclo[2.2.2]octane trifluoroacetate], the inhibition at 0.1 µM is 75.6% and the inhibition at 0.01 µM was found to be 63.8%.
For `O=C(O[C@H]1C[N+]2(CCCOc3ccccc3)CCC1CC2)[C@](O)(c1cccs1)C1CCCC1` [Example 22, (3R)-3-[(2S)-2-Cyclopentyl-2-hydroxy-2-thien-2-ylacetoxy]-1-(3-phenoxypropyl)-1-azoniabicyclo[2.2.2]octane bromide], the inhibition at 0.1 µM came to 81.5% and the inhibition at 0.01 µM was found to be 72%.
Consider `O=C(O[C@H]1C[N+]2(CCCSc3ccccc3)CCC1CC2)[C@](O)(c1ccccc1)C1CCCC1` [Example 84, (3R)-3-[(2R)-2-Cyclopentyl-2-hydroxy-2-phenylacetoxy]-1-(3-phenylsulfanylpropyl)-1-azoniabicyclo[2.2.2]octane trifluoroacetate], for which the inhibition at 0.1 µM stood at 68.3% and the inhibition at 0.01 µM turned out to be 41%.
`O=C(O[C@H]1C[N+]2(CCCOc3ccccc3)CCC1CC2)[C@](O)(c1ccco1)C1CCCC1` [Example 64, (3R)-3-[(2R)-2-Cyclopentyl-2-fur-2-yl-2-hydroxyacetoxy]-1-(3-phenoxypropyl)-1-azoniabicyclo[2.2.2]octane trifluoroacetate]: the inhibition at 0.1 µM worked out at 78.6% and the inhibition at 0.01 µM was determined as 64.5%.
In the same order, the values of `O=C(O[C@H]1C[N+]2(CCCc3cccs3)CCC1CC2)[C@@](O)(c1cccs1)C1CCCC1` [Example 54, (3R)-3-[(2R)-2-Cyclopentyl-2-hydroxy-2-thien-2-ylacetoxy]-1-(3-thien-2-ylpropyl)-1-azoniabicyclo[2.2.2]octane trifluoroacetate] are 72.5% and 44.1%.
Take `O=C(O[C@H]1C[N+]2(CCCOc3ccccc3)CCC1CC2)[C@@](O)(c1cccs1)C1CCCC1` [Example 53, (3R)-3-[(2R)-2-cyclopentyl-2-hydroxy-2-thien-2-ylacetoxy]-1-(3-phenoxypropyl)-1-azoniabicyclo[2.2.2]octane bromide]: the inhibition at 0.1 µM was 81.5% and the inhibition at 0.01 µM was 58%.
In the same order, the values of `O=C(O[C@H]1C[N+]2(CCCc3cccs3)CCC1CC2)[C@](O)(c1cccs1)C1CCCC1` [Example 23, (3R)-3-[(2S)-2-Cyclopentyl-2-hydroxy-2-thien-2-yl-acetoxy]-1-(3-thien-2-ylpropyl)-1-azoniabicyclo[2.2.2]octane trifluoroacetate] are 75.6% and 63.3%.
With `O=C(O[C@H]1C[N+]2(CCCOc3ccc(F)cc3F)CCC1CC2)[C@](O)(c1cccs1)C1CCCC1` [Example 43, (3R)-3-[(2S)-2-Cyclopentyl-2-hydroxy-2-thien-2-ylacetoxy]-1-[3-(2,4-difluorophenoxy)propyl]-1-azoniabicyclo[2.2.2]octane trifluoroacetate], the inhibition at 0.1 µM turned out to be 83.4% and the inhibition at 0.01 µM came out at 58.7%.
Take `O=C(O[C@H]1C[N+]2(CCc3ccccc3)CCC1CC2)[C@@](O)(c1ccccc1)C1CCCC1` [Example 86, (3R)-3-[(2S)-2-Cyclopentyl-2-hydroxy-2-phenylacetoxy]-1-phenethyl-1-azoniabicyclo[2.2.2]octane trifluoroacetate]: the inhibition at 0.1 µM turned out to be 68.2% and the inhibition at 0.01 µM worked out at 37.2%.
Regarding `O=C(O[C@H]1C[N+]2(CCc3ccccc3)CCC1CC2)[C@](O)(c1ccccc1)C1CCCCC1` [Example 70, (3R)-3-[(2R)-2-Cyclohexyl-2-hydroxy-2-phenylacetoxy]-1-phenethyl-1-azoniabicyclo[2.2.2]octane trifluoroacetate], the inhibition at 0.1 µM is 71.2% and the inhibition at 0.01 µM worked out at 50%.
Regarding `CN(CCC[N+]12CCC(CC1)[C@@H](OC(=O)[C@](O)(c1cccs1)C1CCCC1)C2)c1ccccc1` [Example 36, (3R)-3-[(2S)-2-Cyclopentyl-2-hydroxy-2-thien-2-ylacetoxy]-1-[3-(methylphenylamino)propyl]-1-azoniabicyclo[2.2.2]octane trifluoroacetate], the inhibition at 0.1 µM was determined as 84.2% and the inhibition at 0.01 µM was found to be 42%.
The corresponding values for `O=C(O[C@H]1C[N+]2(CCc3ccccc3)CCC1CC2)[C@@](O)(c1cccs1)C1CCCCC1` [Example 92, (3R)-3-[(2R)-2-Cyclohexyl-2-hydroxy-2-thien-2-ylacetoxy]-1-phenethyl-1-azoniabicyclo[2.2.2]octane trifluoroacetate] are 69.4% and 49.2%.
Turning to `CC(C)[N+]1(C)[C@@H]2CC[C@H]1C[C@@H](OC(=O)C(CO)c1ccccc1)C2` (stereo partly shown) [Ipratropium bromide, reference compound], the inhibition at 0.1 µM was determined as 93.8% and the inhibition at 0.01 µM was found to be 67.2%.
On to `O=C(O[C@H]1C[N+]2(CCCOc3cccc(O)c3)CCC1CC2)[C@](O)(c1cccs1)C1CCCC1` [Example 31, (3R)-3-[(2S)-2-Cyclopentyl-2-hydroxy-2-thien-2-ylacetoxy]-1-[3-(3-hydroxyphenoxy)propyl]-1-azoniabicyclo[2.2.2]octane trifluoroacetate], for which the inhibition at 0.1 µM came to 74.3% and the inhibition at 0.01 µM was 54.3%.
Regarding `O=C(O[C@H]1C[N+]2(CCCOc3ccc4c(c3)OCO4)CCC1CC2)[C@](O)(c1cccs1)C1CCCC1` [Example 46, 1-[3-(Benzo[1,3]dioxol-5-yloxy)propyl]-(3R)-3-[(2S)-2-cyclopentyl-2-hydroxy-2-thien-2-ylacetoxy]-1-azoniabicyclo[2.2.2]octane trifluoroacetate], the inhibition at 0.1 µM was determined as 87.1% and the inhibition at 0.01 µM was 57.6%.
The corresponding values for `O=C(O[C@H]1C[N+]2(CCCc3cccs3)CCC1CC2)[C@](O)(c1ccccc1)C1CCCCC1` [Example 69, (3R)-3-[(2R)-2-Cyclohexyl-2-hydroxy-2-phenylacetoxy]-1-(3-thien-2-ylpropyl)-1-azoniabicyclo[2.2.2]octane trifluoroacetate] are 70.8% and 43.9%.
Regarding `N#Cc1cccc(OCCC[N+]23CCC(CC2)[C@@H](OC(=O)[C@](O)(c2cccs2)C2CCCC2)C3)c1` [Example 34, 1-[3-(3-Cyanophenoxy)propyl]-(3R)-3-[(2S)-2-cyclopentyl-2-hydroxy-2-thien-2-ylacetoxy]-1-azoniabicyclo[2.2.2]octane trifluoroacetate], the inhibition at 0.1 µM was determined as 85.3% and the inhibition at 0.01 µM came out at 68.3%.
In the case of `O=C(O[C@H]1C[N+]2(CCCOc3ccccc3)CCC1CC2)[C@](O)(c1ccccc1)C1CCCC1` [Example 82, (3R)-3-[(2R)-2-Cyclopentyl-2-hydroxy-2-phenylacetoxy]-1-(3-phenoxypropyl)-1-azoniabicyclo[2.2.2]octane trifluoroacetate], the inhibition at 0.1 µM was 70.6% and the inhibition at 0.01 µM was found to be 55.3%.
As to `O=C(O[C@H]1C[N+]2(CCCc3ccccc3)CCC1CC2)[C@](O)(c1ccco1)C1CCCCC1` [Example 81, (3R)-3-[(2R)-2-Cyclohexyl-2-fur-2-yl-2-hydroxyacetoxy]-1-(3-phenylpropyl)-1-azoniabicyclo[2.2.2]octane trifluoroacetate], the inhibition at 0.1 µM is 70.1% and the inhibition at 0.01 µM is 45.4%.
`C=CCC(O)(C(=O)O[C@H]1C[N+]2(CCCOc3ccccc3)CCC1CC2)c1cccs1` (stereo partly drawn) [Example 13, (3R)-3-(2-Hydroxy-2-thien-2-ylpent-4-enoyloxy)-1-(3-phenoxypropyl)-1-azoniabicyclo[2.2.2]octane bromide]: the inhibition at 0.1 µM is 76% and the inhibition at 0.01 µM was 36%.
Turning to `O=C(O[C@H]1C[N+]2(CCCc3ccccc3)CCC1CC2)[C@](O)(c1ccco1)C1CCCC1` [Example 67, (3R)-3-[(2R)-2-Cyclopentyl-2-fur-2-yl-2-hydroxyacetoxy]-1-(3-phenylpropyl)-1-azoniabicyclo[2.2.2]octane trifluoroacetate], the inhibition at 0.1 µM turned out to be 75.1% and the inhibition at 0.01 µM was determined as 52.5%.
For `O=C(O[C@H]1C[N+]2(CCCc3cccs3)CCC1CC2)[C@](O)(c1ccco1)C1CCCC1.O=C([O-])C(F)(F)F` [Example 65, (3R)-3-[(2R)-2-Cyclopentyl-2-fur-2-yl-2-hygroxyacetoxy]-1-(3-thien-2-ylpropyl)-1-azoniabicyclo[2.2.2]octane trifluoroacetate], the “% INHIBITION concentration: 1.00E−08 M” value (0.01 µM) was 66.0%. Also, for the setting “0.1 µM”, the “% INHIBITION concentration: 1.00E−07 M” value was 79.8%.
As to `O=C(CCC[N+]12CCC(CC1)[C@@H](OC(=O)[C@](O)(c1cccs1)C1CCCC1)C2)c1ccccc1` [Example 38, (3R)-3-[(2S)-2-Cyclopentyl-2-hydroxy-2-thien-2-ylacetoxy]-1-(4-oxo-4-phenylbutyl)-1-azoniabicyclo[2.2.2]octane trifluoroacetate], the inhibition at 0.1 µM was 86.3% and the inhibition at 0.01 µM is 57.7%.
The corresponding values for `CCCCCC(O)(C(=O)O[C@H]1C[N+]2(CCCOc3ccccc3)CCC1CC2)c1cccs1` (stereo partly drawn) [Example 16, (3R)-3-(2-Hydroxy-2-thien-2-ylheptanoyloxy)-1-(3-phenoxypropyl)-1-azoniabicyclo[2.2.2]octane trifluoroacetate] are 74.2% and 36.3%.
